Series [1] in a line: Single dose pharmacokinetics (PK) study in male Wister-Han rats. Conditions: rat; for clearance / half-life / AUC(0-t) / Vd / Cmax: male, Wister-Han, plasma; for Vd: read-out: Vss; for F: dose normalized AUC0-last after IV and PO dose. The class given is in vivo. The method, then: Pharmacokinetic properties of selected compounds were assessed by single dose PK studies in Male Wister-Han Rats (vendor: Beijing Vital River Laboratory Animal Technology Co., Ltd). Briefly, two groups of animals were administered a single dose of respective compound intravenously (IV, bolus) at 2 mg/kg or orally (PO, by gavage) at 10 mg/kg. Blood samples (approximately 150 μL) were collected via Jugular vein at 5 min (only for IV), 15 min, 30 min, 1 h, 2 h, 4 h, 7 h and 24 h post-dose. Blood samples were placed into tubes containing EDTA-K2 anticoagulant and centrifuged at 3000 rpm for 15 min at 4° C. to separate plasma from the samples. After centrifugation, the resulting plasma was transferred to clean tubes for bioanalysis with LC/MS/MS. The pharmacokinetic parameters were calculated using non-compartmental analysis. The volume of distribution (Vss), half-life (T1/2) and clearance (CL) were obtained based on the plasma concentration-time curve after IV dose. The peak concentration (Cmax) was recorded directly from experimental observations after PO dose. The area under the plasma concentration-time curve (AUC0-last) was calculated using the linear trapezoidal rule up to the last detectable concentration. The bioavailability (F) was calculated based on the dose normalized AUC0-last after IV and PO dose.
The Vss of a drug represents the degree to which a drug is distributed in body tissue rather than the plasma. Vss is directly proportional with the amount of drug distributed into tissue. A higher Vss indicates a greater amount of tissue distribution.

A short description of series [2]: 3T3 in vitro phototoxicity assay (Neutral Red uptake). It counts as cell-based, mouse. Conditions: mouse, Balb/c 3T3 mouse fibroblasts (clone A 31, ATCC CCL 163); approx. 5 J/cm^2 UVA light. The source says: (§1) Phototoxicity is defined as a toxic response that is elicited after the first exposure of the skin to certain chemicals and subsequent exposure to light, or that is induced similarly by skin irradiation after systemic administration of a chemical substance. The assay used in this study is designed to detect the phototoxic potential of a chemical by using a simple in vitro cytotoxicity assay with Balb/c 3T3 mouse fibroblasts. The principle of this test is a comparison of the cytotoxicity of a chemical when tested with and without exposure to a non-toxic dose of UVA-light. Cytotoxicity is expressed as a dose dependent reduction of the growth rate of cells as determined by uptake of the vital dye Neutral Red one day after treatment.
(§2) Preparation of Stock Solution and Dosage of Test Item A small amount of substance was weighed and formulated freshly in DMSO just before the start of the exposure of the cells. This stock solution or appropriate dilutions with DMSO were added to the cell suspensions to obtain the required final concentrations. All solutions were generally prepared in Eppendorf caps and discarded after use.
(§3) • Chlorpromazine (HCL) (Sigma, Batch/Lot No.: 120M1328V), test concentration: 300 μg/mL, Solvent: PBS/3% DMSO
(§4) For this study the Neutral Red uptake (NRU) assay of Borenfreund and Puemer (Borenfreund, E, Puemer J A. Toxicity determined in vitro by morphological alterations and Neutral Red absorption. Toxicology Lett. 1985; 24:119-124) modified according to INVITTOX protocol No 78 (ERGATT/FRAME data bank of in vitro techniques in toxicology. INVITTOX PROTOCOL No 78. 3T3 NRU Phototoxicity Assay. March 1994) has been adapted to examine a possible phototoxic potential of the test item. This assay is based on the active uptake of the Neutral Red dye into the lysosomes of cultured murine fibroblasts. Because lysosomal membranes are known to be a site of action of many phototoxic compounds, this assay can provide a measure of potential for phototoxic injury.
(§5) A murine fibroblasts clone A 31 (ATCC no. CCL 163—passage No. 108) were cultured in 175 cm^2 tissue culture grade flasks, containing sDMEM (Dulbecco's […] Essential Medium, supplemented with 10% fetal calf serum, 2 mM L-glutamine, 100 units/ml Penicillin and 100 μg/ml streptomycin) at 37° C. in a humidified atmosphere of 6% CO2. Before cells approach confluence they were removed from flasks by trypsinisation. Prior to use in an assay, the cells were transferred to 96-well microtiter plates at a concentration of 1×10^4 cells/well in 100 μl volumes of sDMEM and allowed to attach for 24 h. […]
(§6) For each test item the microtiter plates were prepared according to Table 6. […] UV flux was measured with a UV-meter (Dr. Gröbel RM21). […]

Series [3] concerns Balb/c 3T3 mouse fibroblasts. Described as above. The class given is cell-based. Conditions: IC50 with and without UV exposure compared; cut-off >5.
Text: as §1, §2, §3, §4, §5, §6

Setting [4] is: IV 2 mg/kg, read-out: IV AUC0-last.
The mark [5] stands for this setting: PO 10 mg/kg, read-out: PO AUC0-last.

Read-outs that look alike come from different tables or passages of the source. A value given as a limit tells only on which side of the number the result lay.

Results on four molecules are retold here after patent publication US20240360126A1, “PYRAZOLO[3,4-B]PYRIDINE COMPOUNDS FOR THE TREATMENT OF AUTOIMMUNE DISEASE” (Hoffmann-La Roche Inc., priority 2021, published 2024).

By clearance is commonly meant the rate of elimination divided by the concentration. Low readings indicate a low capacity for elimination, high ones a high capacity for elimination. A word on the half-life: it is the time needed for the level to fall by half in the phase considered. Broadly, the Cmax is the maximum level reached in the sampled fluid or tissue. A word on the IC50: it is the concentration that inhibits the measured activity by half.

Take `Cc1cc(N2CCC(c3ncc(N4CCNCC4)cc3C)CC2)c2cnn(C)c2n1` [Example 7, 1,6-dimethyl-4-[4-(3-methyl-5-piperazin-1-yl-2-pyridyl)-1-piperidyl]pyrazolo[3,4-b]pyridine]: in series [1] (IV 2 mg/kg), the clearance was determined as 16 mL/min/kg, the half-life was 14.7 h and the Vd was found to be 16.8 L/kg. The AUC(0-t) in series [1] (setting [4]) came to 1520 ng·h/mL. The Cmax in series [1] (PO 10 mg/kg) was found to be 465 ng/mL. In addition, in series [1] (setting [5]), the AUC(0-t) turned out to be 7510 ng·h/mL. The molecule also had a F in series [1] of 100%.
As to `CO[C@@H]1CN(c2cnc([C@@H]3CCN(c4cc(C)nc5c4cnn5C)C[C@H]3C)c(C)c2)C[C@H]1N` [Example 26, (3R,4R)-1-[6-[(3S,4R)-1-(1,6-dimethylpyrazolo[3,4-b]pyridin-4-yl)-3-methyl-4-piperidyl]-5-methyl-3-pyridyl]-4-methoxy-pyrrolidin-3-amine], in series [1] (IV 2 mg/kg), the clearance is 10.3 mL/min/kg, the half-life is 15.7 h and the Vd is 12.5 L/kg. Also, the AUC(0-t) in series [1] (setting [4]) was 2200 ng·h/mL. The concentration in series [1] (PO 10 mg/kg) peaked (Cmax) at 620 ng/mL. For the same molecule, the AUC(0-t) in series [1] (setting [5]) stood at 9260 ng·h/mL. In series [1], the F came to 84.3%.
`Cc1cc(N2CC[C@@H](c3ncc(N4CCOC[C@@H](N)C4)cc3C)[C@H](C)C2)c2cnn(C)c2n1` [Example 28, (6S)-4-[6-[(3S,4R)-1-(1,6-dimethylpyrazolo[3,4-b]pyridin-4-yl)-3-methyl-4-piperidyl]-5-methyl-3-pyridyl]-1,4-oxazepan-6-amine]: the concentration for half-maximal inhibition (IC50) at 1 h in series [2] was greater than 120 µg/mL. Moreover, the Phototoxicity factor in series [3] amounted to 1. In series [1] (IV 2 mg/kg), the clearance turned out to be 30.2 mL/min/kg, the half-life was 8.84 h and the Vd turned out to be 16.7 L/kg. Further, the AUC(0-t) in series [1] (setting [4]) stood at 974 ng·h/mL. In series [1] (PO 10 mg/kg), the peak level (Cmax) was 122 ng/mL. For the same molecule, the AUC(0-t) in series [1] (setting [5]) worked out at 1800 ng·h/mL. For the same molecule, the F in series [1] worked out at 37%.
Molecule `Cc1cc(N2CC[C@H](c3ccc(N4CCOC[C@@H](N)C4)cn3)[C@@H](C)C2)c2cnn(C)c2n1` [Example 40, (6S)-4-[6-[(3R,4S)-1-(1,6-dimethylpyrazolo[3,4-b]pyridin-4-yl)-3-methyl-4-piperidyl]-3-pyridyl]-1,4-oxazepan-6-amine] gave an IC50 at 1 h in series [2] greater than 120 µg/mL. For the same molecule, in series [3], the Phototoxicity factor was 1. Besides, in series [1] (IV 2 mg/kg), the clearance was determined as 32.8 mL/min/kg, the half-life is 7.26 h and the Vd is 13.2 L/kg. In addition, the AUC(0-t) in series [1] (setting [4]) turned out to be 1060 ng·h/mL. For the same molecule, the peak concentration (Cmax) in series [1] (PO 10 mg/kg) was 216 ng/mL. Besides, the AUC(0-t) in series [1] (setting [5]) came out at 2840 ng·h/mL. Further, in series [1], the F was 53.4%.
